What was measured:
[1] = target: Glutamate receptor ionotropic, NMDA 2B (Rattus norvegicus, UniProt Q00960)
[2] = Neuroprotective activity against NMDA-induced cell injury in rat Hippocampal neuron cells assessed as cell viability at 10 uM preincubated with compound for 6 hrs followed by NMDA-addition and measured after 0.5 hrs by MTT assay relative to control; details: Hippocampal neurone, 6.5 h, read-out: Activity
[3] = cells; details: Rattus norvegicus, Hippocampal neurone, 6.5 h, read-out: Activity
[4] = Neuroprotective activity against NMDA-induced cell injury in rat Hippocampal neuron cells assessed as cell viability at 0.1 uM preincubated with compound for 6 hrs followed by NMDA-addition and measured after 0.5 hrs by MTT assay relative to control; details: Hippocampal neurone, 6.5 h, read-out: Activity
[5] = target: Glutamate receptor ionotropic, NMDA 2B (Rattus norvegicus) (UniProt Q00960); test: Antagonist activity at rat GluN2B NMDA receptor at 50 nM incubated for 120 mins by competitive binding assay relative to control; parameters: scale not given: the % may be the effect or the level left
[6] = Cytotoxicity against mouse primary neuron cells assessed as reduction in cell viability incubated for 48 hrs by CCK-8 assay
[7] = Cytotoxicity against HEK293 cells assessed as reduction in cell viability incubated for 48 hrs by CCK-8 assay; details: human
[8] = Cytotoxicity against African green monkey Vero cells assessed as reduction in cell viability incubated for 48 hrs by CCK-8 assay
[9] = target: Glutamate NMDA receptor; GRIN1/GRIN2B (Homo sapiens, UniProt Q05586+Q13224)
Description: Antagonist activity at GluN1/GluN2B receptor (unknown origin) expressed in HEK293 cells assessed as inhibition of receptor-mediated current by patch clamp assay

[10] = Cytotoxicity against mouse L929 cells assessed as reduction in cell viability incubated for 48 hrs by CCK-8 assay
[11] = target: Voltage-gated inwardly rectifying potassium channel KCNH2 (Homo sapiens, UniProt Q12809); test: Inhibition of hERG expressed in HEK293 cells by whole-cell manual patch-clamp assay; assay type: toxicity, cell-based

Glutamate receptor ionotropic, NMDA 2B (Rattus norvegicus), sequence (Q00960 27-1482 limits assumed): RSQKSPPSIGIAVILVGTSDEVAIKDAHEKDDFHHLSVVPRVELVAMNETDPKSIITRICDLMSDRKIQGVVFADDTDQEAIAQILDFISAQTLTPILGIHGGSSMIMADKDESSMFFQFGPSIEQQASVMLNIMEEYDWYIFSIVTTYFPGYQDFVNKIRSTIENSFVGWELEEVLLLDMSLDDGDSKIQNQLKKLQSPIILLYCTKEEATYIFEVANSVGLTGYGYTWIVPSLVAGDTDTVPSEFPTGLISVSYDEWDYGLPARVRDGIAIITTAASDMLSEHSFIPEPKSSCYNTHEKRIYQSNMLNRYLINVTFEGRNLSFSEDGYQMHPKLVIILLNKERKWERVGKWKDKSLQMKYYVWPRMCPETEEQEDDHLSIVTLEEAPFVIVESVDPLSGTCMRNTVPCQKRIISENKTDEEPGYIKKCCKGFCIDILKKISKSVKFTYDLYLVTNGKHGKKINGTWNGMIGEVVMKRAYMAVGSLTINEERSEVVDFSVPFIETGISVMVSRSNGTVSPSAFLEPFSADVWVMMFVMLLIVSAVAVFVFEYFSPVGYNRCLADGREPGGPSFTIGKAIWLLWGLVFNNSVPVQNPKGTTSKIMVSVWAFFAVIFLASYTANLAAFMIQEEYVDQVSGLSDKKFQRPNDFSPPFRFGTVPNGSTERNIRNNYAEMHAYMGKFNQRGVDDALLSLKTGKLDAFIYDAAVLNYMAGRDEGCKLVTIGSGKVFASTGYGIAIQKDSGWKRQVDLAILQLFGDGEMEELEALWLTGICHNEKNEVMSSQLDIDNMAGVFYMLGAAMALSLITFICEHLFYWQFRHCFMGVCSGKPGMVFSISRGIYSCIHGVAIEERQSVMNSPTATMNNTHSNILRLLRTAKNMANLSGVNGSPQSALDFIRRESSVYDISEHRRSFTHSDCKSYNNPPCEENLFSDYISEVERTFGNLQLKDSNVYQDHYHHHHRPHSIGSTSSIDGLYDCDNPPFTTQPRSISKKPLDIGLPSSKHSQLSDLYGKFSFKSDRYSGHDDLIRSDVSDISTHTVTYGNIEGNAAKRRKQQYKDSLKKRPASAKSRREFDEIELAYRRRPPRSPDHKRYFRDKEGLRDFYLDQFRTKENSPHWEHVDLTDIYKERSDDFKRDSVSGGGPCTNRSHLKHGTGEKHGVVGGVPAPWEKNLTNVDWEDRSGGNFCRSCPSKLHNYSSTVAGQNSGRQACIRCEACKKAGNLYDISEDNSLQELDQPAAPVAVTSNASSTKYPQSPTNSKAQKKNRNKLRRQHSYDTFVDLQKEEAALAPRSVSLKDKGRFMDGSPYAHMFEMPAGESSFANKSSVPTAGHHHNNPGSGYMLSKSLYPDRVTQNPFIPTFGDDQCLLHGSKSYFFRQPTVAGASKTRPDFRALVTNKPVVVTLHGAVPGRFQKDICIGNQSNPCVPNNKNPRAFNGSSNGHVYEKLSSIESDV
Glutamate receptor ionotropic, NMDA 2B, sequence (Q00960 whole entry): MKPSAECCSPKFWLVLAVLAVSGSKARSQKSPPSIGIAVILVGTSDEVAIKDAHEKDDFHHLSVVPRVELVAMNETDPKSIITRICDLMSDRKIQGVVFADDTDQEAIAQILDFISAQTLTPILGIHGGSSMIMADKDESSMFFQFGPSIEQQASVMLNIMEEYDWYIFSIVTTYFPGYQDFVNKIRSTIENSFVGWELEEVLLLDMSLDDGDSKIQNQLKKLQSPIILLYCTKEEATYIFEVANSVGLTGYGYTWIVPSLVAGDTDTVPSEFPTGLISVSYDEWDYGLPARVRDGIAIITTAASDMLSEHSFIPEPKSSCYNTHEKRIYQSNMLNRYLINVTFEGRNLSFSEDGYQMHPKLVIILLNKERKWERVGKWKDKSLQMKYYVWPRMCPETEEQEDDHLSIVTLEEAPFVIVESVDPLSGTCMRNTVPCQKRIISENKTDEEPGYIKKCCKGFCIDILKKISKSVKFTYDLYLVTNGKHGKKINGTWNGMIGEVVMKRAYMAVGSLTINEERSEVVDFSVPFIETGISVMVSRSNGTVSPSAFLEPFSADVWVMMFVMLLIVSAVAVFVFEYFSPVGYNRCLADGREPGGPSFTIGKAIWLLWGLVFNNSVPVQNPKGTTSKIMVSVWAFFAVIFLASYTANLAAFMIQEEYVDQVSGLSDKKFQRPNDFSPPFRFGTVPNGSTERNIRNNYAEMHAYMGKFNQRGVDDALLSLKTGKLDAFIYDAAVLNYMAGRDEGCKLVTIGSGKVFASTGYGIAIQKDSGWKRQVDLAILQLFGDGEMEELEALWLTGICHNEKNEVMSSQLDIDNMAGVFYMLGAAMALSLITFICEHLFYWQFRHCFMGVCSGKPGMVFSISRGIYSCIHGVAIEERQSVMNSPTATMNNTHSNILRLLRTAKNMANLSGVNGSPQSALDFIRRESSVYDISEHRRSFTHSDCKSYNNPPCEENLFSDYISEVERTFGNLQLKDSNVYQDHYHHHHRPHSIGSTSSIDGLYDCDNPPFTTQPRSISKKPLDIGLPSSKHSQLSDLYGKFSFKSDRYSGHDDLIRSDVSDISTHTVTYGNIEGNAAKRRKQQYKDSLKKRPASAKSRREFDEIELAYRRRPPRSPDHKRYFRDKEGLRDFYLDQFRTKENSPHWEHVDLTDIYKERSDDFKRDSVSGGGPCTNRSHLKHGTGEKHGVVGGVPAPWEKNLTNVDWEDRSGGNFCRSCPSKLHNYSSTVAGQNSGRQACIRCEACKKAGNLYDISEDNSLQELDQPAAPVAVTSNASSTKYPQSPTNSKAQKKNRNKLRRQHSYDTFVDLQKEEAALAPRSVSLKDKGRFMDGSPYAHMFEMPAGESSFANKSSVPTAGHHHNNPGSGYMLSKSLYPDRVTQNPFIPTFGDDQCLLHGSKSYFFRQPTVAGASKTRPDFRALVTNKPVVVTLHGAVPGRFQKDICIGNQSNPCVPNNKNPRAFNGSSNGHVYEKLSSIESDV
Glutamate NMDA receptor; GRIN1/GRIN2B, sequence (Q13224 whole entry, other chains not shown): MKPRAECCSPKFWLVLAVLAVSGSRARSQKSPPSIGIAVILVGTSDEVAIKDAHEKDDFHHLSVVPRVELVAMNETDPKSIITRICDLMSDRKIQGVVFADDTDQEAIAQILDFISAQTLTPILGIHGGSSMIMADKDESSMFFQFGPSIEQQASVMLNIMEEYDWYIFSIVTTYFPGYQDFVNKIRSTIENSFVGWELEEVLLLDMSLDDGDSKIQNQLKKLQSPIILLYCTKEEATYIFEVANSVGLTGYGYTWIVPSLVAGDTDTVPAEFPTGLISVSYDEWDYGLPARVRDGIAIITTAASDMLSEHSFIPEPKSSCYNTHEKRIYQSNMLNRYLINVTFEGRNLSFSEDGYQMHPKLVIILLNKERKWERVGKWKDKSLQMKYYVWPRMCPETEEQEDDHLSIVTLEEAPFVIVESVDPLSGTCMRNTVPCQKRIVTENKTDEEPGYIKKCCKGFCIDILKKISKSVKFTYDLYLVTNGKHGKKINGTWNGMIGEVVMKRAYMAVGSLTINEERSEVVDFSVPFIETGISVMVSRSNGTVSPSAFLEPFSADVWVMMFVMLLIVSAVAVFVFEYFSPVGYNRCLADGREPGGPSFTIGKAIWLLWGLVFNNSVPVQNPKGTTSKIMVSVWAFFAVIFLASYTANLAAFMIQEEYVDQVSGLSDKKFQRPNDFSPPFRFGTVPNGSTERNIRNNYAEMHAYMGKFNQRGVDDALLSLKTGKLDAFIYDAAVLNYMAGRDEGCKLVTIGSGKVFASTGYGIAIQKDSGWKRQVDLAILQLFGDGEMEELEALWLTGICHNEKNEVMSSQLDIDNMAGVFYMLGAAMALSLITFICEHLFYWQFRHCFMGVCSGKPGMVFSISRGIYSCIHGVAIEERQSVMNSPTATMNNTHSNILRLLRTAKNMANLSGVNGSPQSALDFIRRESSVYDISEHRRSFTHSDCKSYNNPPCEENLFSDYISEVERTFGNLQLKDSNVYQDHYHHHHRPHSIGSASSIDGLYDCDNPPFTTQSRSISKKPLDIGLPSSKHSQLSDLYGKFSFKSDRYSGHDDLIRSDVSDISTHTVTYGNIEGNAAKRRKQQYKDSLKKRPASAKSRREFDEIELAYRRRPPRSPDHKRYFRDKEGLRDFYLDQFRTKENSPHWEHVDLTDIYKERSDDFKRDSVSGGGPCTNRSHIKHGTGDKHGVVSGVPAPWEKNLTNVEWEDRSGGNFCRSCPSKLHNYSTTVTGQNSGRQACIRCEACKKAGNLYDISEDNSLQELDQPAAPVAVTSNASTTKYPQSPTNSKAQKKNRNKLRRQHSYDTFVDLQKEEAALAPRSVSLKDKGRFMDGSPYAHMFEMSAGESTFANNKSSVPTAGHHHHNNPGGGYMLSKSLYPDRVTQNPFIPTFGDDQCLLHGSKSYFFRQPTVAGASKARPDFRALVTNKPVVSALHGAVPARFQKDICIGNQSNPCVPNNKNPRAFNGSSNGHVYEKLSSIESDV

| Ki [1] | SMILES | other results |
| --- | --- | --- |
| 32.8 nM | O=C1OC(CCCN2CCN(C(=O)c3ccccc3)CC2)c2ccccc21 (stereo unspecified) |  |
|  | CC(C(O)c1ccc(O)cc1)N1CCC(Cc2ccccc2)CC1 (stereo unspecified) [IFENPRODIL] | viability at 10 µM [2]: 84.8%; viability at 1 µM [3]: 77%; viability at 0.1 µM [4]: 65.9% |
|  | O=C1OC(CCCN2CCc3ccccc3C2)c2ccccc21 (stereo unspecified) | Activity [5]: 22.2% |
| 2.6 nM | O=C1OC(CCCN2CCN(C(=O)c3ccc(C(F)(F)F)cc3)CC2)c2ccccc21 (stereo unspecified) |  |
| 26.5 nM | O=C1OC(CCCN2CCN(c3ccc(Br)cc3)CC2)c2ccccc21 (stereo unspecified) |  |
|  | O=C1OC(CCCN2CCN(c3ncccn3)CC2)c2ccccc21 (stereo unspecified) | Activity [5]: 30.9% |
| 12.1 nM | O=C1OC(CCCN2CCN(C(=O)c3ccncc3)CC2)c2ccccc21 (stereo unspecified) |  |
| 23.6 nM | O=C1OC(CCCN2CCN(c3ccccc3F)CC2)c2ccccc21 (stereo unspecified) |  |
| 36.8 nM | Cc1cccc(N2CCN(CCCC3OC(=O)c4ccccc43)CC2)c1 (stereo unspecified) |  |
| 8.22 nM | O=C1OC(CCCN2CCN(C(=O)c3ccc(C(F)(F)F)cc3)CC2)c2cc(O)ccc21 (stereo unspecified) |  |
| 53.2 nM | COc1ccc2cc(C(=O)N3CCN(CCCC4OC(=O)c5ccccc54)CC3)[nH]c2c1 (stereo unspecified) |  |
| 30.9 nM | COc1cccc(N2CCN(CCCC3OC(=O)c4ccccc43)CC2)c1 (stereo unspecified) |  |
| 9.39 nM | O=C1OC(CCCN2CCN(c3ccc(F)cc3)CC2)c2ccccc21 (stereo unspecified) |  |
| 6.26 nM | O=C1OC(CCCN2CCN(c3ccc(O)cc3)CC2)c2ccc(O)cc21 (stereo unspecified) |  |
| 25.4 nM | O=C1OC(CCCN2CCN(C(=O)c3cc4ccncc4[nH]3)CC2)c2ccccc21 (stereo unspecified) |  |
| 26.8 nM | O=C1OC(CCCN2CCN(c3ccc(O)cc3)CC2)c2ccccc21 (stereo unspecified) |  |
| 36.2 nM | Cc1ccc(C(=O)N2CCN(CCCC3OC(=O)c4cc(O)ccc43)CC2)cc1 (stereo unspecified) |  |
|  | O=C1OC(CCCN2CCN(c3ccccn3)CC2)c2ccccc21 (stereo unspecified) | Activity ([5]; filed as antagonist): 42.2% |
| 7.97 nM | O=C1OC(CCCN2CCN(C(=O)c3cc4ccccc4[nH]3)CC2)c2ccccc21 (stereo unspecified) |  |
| 42.9 nM | O=C1OC(CCCN2CCN(c3ccc(C(F)(F)F)cc3)CC2)c2ccccc21 (stereo unspecified) |  |
| 12.4 nM | Cc1ccc(N2CCN(CCCC3OC(=O)c4cc(NS(C)(=O)=O)ccc43)CC2)cc1 (stereo unspecified) |  |

| Ki [1] | SMILES | other results |
| --- | --- | --- |
| 16.7 nM | O=C1OC(CCCN2CCN(C(=O)c3cc4ccc(Cl)cc4[nH]3)CC2)c2ccccc21 (stereo unspecified) |  |
| 4.23 nM | CS(=O)(=O)Nc1ccc2c(c1)C(=O)OC2CCCN1CCN(C(=O)c2cc3cccc(Cl)c3[nH]2)CC1 (stereo unspecified) |  |
| 20.8 nM | O=C1OC(CCCN2CCN(c3cccc(Cl)c3)CC2)c2ccccc21 (stereo unspecified) |  |
| 32.1 nM | O=C1OC(CCCN2CCN(C(=O)c3ccc(C(F)(F)F)cc3)CC2)c2ccc(O)cc21 (stereo unspecified) |  |
| 13.4 nM | O=C1OC(CCCN2CCN(C(=O)c3c[nH]cn3)CC2)c2ccccc21 (stereo unspecified) |  |
| 34.6 nM | COc1cccc(C(=O)N2CCN(CCCC3OC(=O)c4ccccc43)CC2)c1 (stereo unspecified) |  |
| 46.7 nM | COc1ccc(C(=O)N2CCN(CCCC3OC(=O)c4ccccc43)CC2)cc1 (stereo unspecified) |  |
|  | O=C1OC(CCCN2CCN(c3nsc4ccccc34)CC2)c2ccccc21 (stereo unspecified) | Activity [5]: 15.7% |
|  | O=C1OC(CCCN2CCN(c3csc4ccccc34)CC2)c2ccccc21 (stereo unspecified) | Activity [5]: 36.6% |
| 13.2 nM | Cc1ccc(C(=O)N2CCN(CCCC3OC(=O)c4cc(NS(C)(=O)=O)ccc43)CC2)cc1 (stereo unspecified) |  |
| 1.34 nM | Cc1ccc(C(=O)N2CCN(CCCC3OC(=O)c4ccccc43)CC2)cc1 (stereo unspecified) |  |
| 31.1 nM | O=C1OC(CCCN2CCN(C(=O)c3ccc(F)cc3)CC2)c2ccccc21 (stereo unspecified) |  |
| 26 nM | COc1ccc2[nH]c(C(=O)N3CCN(CCCC4OC(=O)c5ccccc54)CC3)cc2c1 (stereo unspecified) |  |
| 6.12 nM | Cc1ccc(N2CCN(CCCC3OC(=O)c4ccccc43)CC2)cc1 (stereo unspecified) |  |
| 32.8 nM | O=C1OC(CCCN2CCN(C(=O)c3cc4cnccc4[nH]3)CC2)c2ccccc21 (stereo unspecified) |  |
| 19.6 nM | CS(=O)(=O)Nc1ccc2c(c1)C(=O)OC2CCCN1CCN(c2ccc(O)cc2)CC1 (stereo unspecified) |  |
| 13.9 nM | O=C1OC(CCCN2CCN(c3ccccc3)CC2)c2ccccc21 (stereo unspecified) | Activity ([5]; filed as antagonist): 75.4% |
| 2.89 nM | CC(C)c1ccc(N2CCN(CCCC3OC(=O)c4ccccc43)CC2)cc1 (stereo unspecified) |  |
| 13 nM | O=C1OC(CCCN2CCN(C(=O)c3cc[nH]c3)CC2)c2ccccc21 (stereo unspecified) |  |
| 27.9 nM | Cc1cccc2cc(C(=O)N3CCN(CCCC4OC(=O)c5ccccc54)CC3)[nH]c12 (stereo unspecified) |  |
| 24.3 nM | COc1ccc(N2CCN(CCCC3OC(=O)c4ccccc43)CC2)cc1 (stereo unspecified) |  |

| Ki [1] | SMILES | other results |
| --- | --- | --- |
| 8.15 nM | COc1ccccc1N1CCN(CCCC2OC(=O)c3ccccc32)CC1 (stereo unspecified) |  |
| 49.7 nM | O=C1OC(CCCN2CCN(C(=O)c3cc4cccnc4[nH]3)CC2)c2ccccc21 (stereo unspecified) |  |
| 1.28 nM | O=C(O)c1ccccc1C(O)CCCN1CCN(C(=O)C2Cc3cccc(Cl)c3N2)CC1 (stereo unspecified) |  |
| 73.4 nM | O=C1OC(CCCN2CCN(C(=O)c3nc4ccccc4[nH]3)CC2)c2ccccc21 (stereo unspecified) |  |
|  | O=C1OC(CCCN2CCc3ccccc32)c2ccccc21 (stereo unspecified) | Activity [5]: 24.5%; Activity ([5]; filed as antagonist): 47.1% |
| 15.2 nM | CS(=O)(=O)Nc1ccc2c(c1)C(=O)OC2CCCN1CCN(C(=O)c2ccc(C(F)(F)F)cc2)CC1 (stereo unspecified) |  |
| 29.2 nM | Cc1ccc(N2CCN(CCCC3OC(=O)c4ccccc43)CC2)cc1C (stereo unspecified) |  |
| 25.9 nM | O=C1OC(CCCN2CCN(c3ccccc3C(F)(F)F)CC2)c2ccccc21 (stereo unspecified) |  |
|  | O=C1OC(CCCN2CCc3ccccc3C2c2ccccc2)c2ccccc21 (stereo unspecified) | Activity [5]: 36.4% |
|  | NC(=O)c1coc2ccc(N3CCN(CCCC4OC(=O)c5ccccc54)CC3)cc12 (stereo unspecified) | Activity ([5]; filed as antagonist): 47.1% |
| 12.7 nM | O=C1OC(CCCN2CCN(C(=O)c3ccc(Cl)cc3)CC2)c2ccccc21 (stereo unspecified) |  |
|  | O=C1OC(CCCN2Cc3ccccc3C2)c2ccccc21 (stereo unspecified) | Activity [5]: 26.7% |
| 114 nM | CN(C)CCCC1OC(=O)c2ccccc21 (stereo unspecified) | IC50 at 48 h [6]: > 300000 nM; IC50 at 48 h [7]: > 300000 nM; IC50 at 48 h [8]: > 300000 nM; IC50 [9]: > 10000 nM; IC50 at 48 h [10]: > 300000 nM |
| 11.3 nM | Cc1ccccc1N1CCN(CCCC2OC(=O)c3ccccc32)CC1 (stereo unspecified) |  |
| 23.5 nM | O=C1OC(CCCN2CCN(C(=O)c3cccnc3)CC2)c2ccccc21 (stereo unspecified) |  |
| 15.1 nM | Cc1ccc(N2CCN(CCCC3OC(=O)c4ccc(O)cc43)CC2)cc1 (stereo unspecified) |  |
| 45.1 nM | O=C1OC(CCCN2CCN(C(=O)c3ccccn3)CC2)c2ccccc21 (stereo unspecified) |  |
| 1.12 nM | O=C1OC(CCCN2CCN(C(=O)c3cc4cccc(Cl)c4[nH]3)CC2)c2cc(O)ccc21 (stereo unspecified) | IC50 [9]: 183 nM; inhibition (INH) [11]: Active |
| 25.6 nM | O=C1OC(CCCN2CCN(c3ccc(Cl)cc3)CC2)c2ccccc21 (stereo unspecified) |  |
| 3.77 nM | O=C1OC(CCCN2CCN(c3ccc([N+](=O)[O-])cc3)CC2)c2ccccc21 (stereo unspecified) |  |
|  | Cc1ccc2c(c1)CN(CCCC1OC(=O)c3ccccc31)CC2 (stereo unspecified) | Activity [5]: 32.4% |

| SMILES | Ki [1] | other results |
| --- | --- | --- |
| O=C1OC(CCCN2C[C@H]3C[C@@]3(c3ccc(Cl)c(Cl)c3)C2)c2ccccc21 (stereo partly specified) | 33.6 nM | Activity ([5]; filed as antagonist): 76% |
